Measurements published in ChEMBL document CHEMBL4196233, “Ribosome-Templated Azide-Alkyne Cycloadditions Using Resistant Bacteria as Reaction Vessels: in Cellulo Click Chemistry” (2018).
In brackets after ≈: the same amount, converted by molar mass.

What follows are compounds tested on Staphylococcus aureus (assay: Antimicrobial activity against Staphylococcus aureus UCN18 measured after 18 hrs). Conditions: UCN18, 18 h.
Format: functional

Row | SMILES | MIC [µg/mL]
1 | CC[C@H]1OC(=O)[C@@](C)(F)C(=O)[C@H](C)[C@@H](O[C@@H]2O[C@H](C)C[C@H](N(C)C)[C@H]2O)[C@](C)(OC)C[C@@H](C)C(=O)[C@H](C)[C@H]2N(CCCCn3cc(-c4cccnc4)nn3)C(=O)O[C@]12C | 16 (≈ 19.3 µM)
2 | CC[C@H]1OC(=O)[C@@](C)(F)C(=O)[C@H](C)[C@@H](O[C@@H]2O[C@H](C)C[C@H](N(C)C)[C@H]2O)[C@](C)(OC)C[C@@H](C)C(=O)[C@H](C)[C@H]2N(CCCCn3cc(-c4cccc(O)c4)nn3)C(=O)O[C@]12C | 8 (≈ 9.46 µM)
3 | CC[C@H]1OC(=O)[C@@](C)(F)C(=O)[C@H](C)[C@@H](O[C@@H]2O[C@H](C)C[C@H](N(C)C)[C@H]2O)[C@](C)(OC)C[C@@H](C)C(=O)[C@H](C)[C@H]2N(CCCCn3cc(-c4cccc(N)c4)nn3)C(=O)O[C@]12C [SOLITHROMYCIN] | 2 (≈ 2.37 µM)
4 | CC[C@H]1OC(=O)[C@@](C)(F)C(=O)[C@H](C)[C@@H](O[C@@H]2O[C@H](C)C[C@H](N(C)C)[C@H]2O)[C@](C)(OC)C[C@@H](C)C(=O)[C@H](C)[C@H]2N(CCCCn3cc(COc4ccc(OC)cc4)nn3)C(=O)O[C@]12C | 16 (≈ 18 µM)
5 | CC[C@H]1OC(=O)[C@@](C)(F)C(=O)[C@H](C)[C@@H](O[C@@H]2O[C@H](C)C[C@H](N(C)C)[C@H]2O)[C@](C)(OC)C[C@@H](C)C(=O)[C@H](C)[C@H]2N(CCCCn3cc(C(O)(CC)CC)nn3)C(=O)O[C@]12C | 128 (≈ 152 µM)
6 | CC[C@H]1OC(=O)[C@@](C)(F)C(=O)[C@H](C)[C@@H](O[C@@H]2O[C@H](C)C[C@H](N(C)C)[C@H]2O)[C@](C)(OC)C[C@@H](C)C(=O)[C@H](C)[C@H]2N(CCCCn3cc(-c4ccc(N(C)C)cc4)nn3)C(=O)O[C@]12C | 32 (≈ 36.7 µM)
7 | CC[C@H]1OC(=O)[C@@](C)(F)C(=O)[C@H](C)[C@@H](O[C@@H]2O[C@H](C)C[C@H](N(C)C)[C@H]2O)[C@](C)(OC)C[C@@H](C)C(=O)[C@H](C)[C@H]2N(CCCCn3cc(-c4cccc(C(F)(F)F)c4)nn3)C(=O)O[C@]12C | 32 (≈ 35.6 µM)
8 | CC[C@H]1OC(=O)[C@@](C)(F)C(=O)[C@H](C)[C@@H](O[C@@H]2O[C@H](C)C[C@H](N(C)C)[C@H]2O)[C@](C)(OC)C[C@@H](C)C(=O)[C@H](C)[C@H]2N(CCCCn3cc(-c4ccccc4F)nn3)C(=O)O[C@]12C | 8 (≈ 9.43 µM)
9 | CC[C@H]1OC(=O)[C@@](C)(F)C(=O)[C@H](C)[C@@H](O[C@@H]2O[C@H](C)C[C@H](N(C)C)[C@H]2O)[C@](C)(OC)C[C@@H](C)C(=O)[C@H](C)[C@H]2N(CCCCN=[N+]=[N-])C(=O)O[C@]12C | 256 (≈ 352 µM)
10 | CC[C@H]1OC(=O)[C@@](C)(F)C(=O)[C@H](C)[C@@H](O[C@@H]2O[C@H](C)C[C@H](N(C)C)[C@H]2O)[C@](C)(OC)C[C@@H](C)C(=O)[C@H](C)[C@H]2N(CCCCn3cc(COc4ccccc4)nn3)C(=O)O[C@]12C | 4 (≈ 4.65 µM)
11 | CC[C@H]1OC(=O)[C@@](C)(F)C(=O)[C@H](C)[C@@H](O[C@@H]2O[C@H](C)C[C@H](N(C)C)[C@H]2O)[C@](C)(OC)C[C@@H](C)C(=O)[C@H](C)[C@H]2N(CCCCn3cc(CN4CCNCC4)nn3)C(=O)O[C@]12C | 128 (≈ 150 µM)
12 | CC[C@H]1OC(=O)[C@@](C)(F)C(=O)[C@H](C)[C@@H](O[C@@H]2O[C@H](C)C[C@H](N(C)C)[C@H]2O)[C@](C)(OC)C[C@@H](C)C(=O)[C@H](C)[C@H]2N(CCCCn3cc(-c4ccc(OC)cc4)nn3)C(=O)O[C@]12C | 32 (≈ 37.2 µM)
